# Read-outs that look alike come from different tables or passages of the source.
# Key:
# hERG (WT) [1] = conditions: cited from earlier work
# hERG (WT) [2] = test: Literature IhERG block, WT hERG in Xenopus oocytes; type: cell-based; conditions: human, Xenopus oocytes expressing WT hERG; Oocyte, room temperature; estimated from single dose data with Hill equation, h = 1; read-out: WT IC50 (estimated)
# hERG (WT) [3] = conditions: cited from earlier work; remark: listed apart in the source
# Y652A hERG = Y652A hERG (Homo sapiens, UniProt Q12809, Y652A); conditions: cited from earlier work
# Y652A hERG, sequence (Q12809 whole entry Y652A): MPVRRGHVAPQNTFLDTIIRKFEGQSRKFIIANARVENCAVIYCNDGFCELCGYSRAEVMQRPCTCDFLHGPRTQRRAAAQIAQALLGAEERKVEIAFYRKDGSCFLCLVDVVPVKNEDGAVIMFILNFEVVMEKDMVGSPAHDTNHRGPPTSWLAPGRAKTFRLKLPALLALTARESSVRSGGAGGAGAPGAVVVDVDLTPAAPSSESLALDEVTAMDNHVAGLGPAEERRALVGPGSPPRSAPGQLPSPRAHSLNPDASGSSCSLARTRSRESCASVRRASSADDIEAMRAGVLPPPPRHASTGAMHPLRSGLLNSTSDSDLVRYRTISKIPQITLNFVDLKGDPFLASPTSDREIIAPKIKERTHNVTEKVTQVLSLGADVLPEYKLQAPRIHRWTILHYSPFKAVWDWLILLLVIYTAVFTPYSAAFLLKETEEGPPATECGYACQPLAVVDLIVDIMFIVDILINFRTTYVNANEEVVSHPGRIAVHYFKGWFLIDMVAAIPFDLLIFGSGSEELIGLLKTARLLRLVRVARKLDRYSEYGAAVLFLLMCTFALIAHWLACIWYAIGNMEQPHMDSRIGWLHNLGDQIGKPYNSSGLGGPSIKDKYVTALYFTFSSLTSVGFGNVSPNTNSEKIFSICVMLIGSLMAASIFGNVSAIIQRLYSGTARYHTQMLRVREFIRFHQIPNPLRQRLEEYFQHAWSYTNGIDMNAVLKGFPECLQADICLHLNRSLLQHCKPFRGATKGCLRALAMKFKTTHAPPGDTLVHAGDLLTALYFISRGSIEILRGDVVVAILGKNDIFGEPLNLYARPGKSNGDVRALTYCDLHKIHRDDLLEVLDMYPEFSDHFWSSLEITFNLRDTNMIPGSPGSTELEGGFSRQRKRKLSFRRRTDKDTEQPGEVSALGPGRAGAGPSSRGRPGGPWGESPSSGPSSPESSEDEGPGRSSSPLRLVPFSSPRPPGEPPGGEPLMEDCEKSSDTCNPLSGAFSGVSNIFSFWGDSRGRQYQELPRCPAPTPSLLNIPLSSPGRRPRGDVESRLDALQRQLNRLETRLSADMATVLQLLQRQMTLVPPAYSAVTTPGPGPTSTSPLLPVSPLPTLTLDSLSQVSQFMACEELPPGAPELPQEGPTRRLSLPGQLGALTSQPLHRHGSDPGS
# F656A hERG = F656A hERG (Homo sapiens, UniProt Q12809, F656A); conditions: cited from earlier work
# F656A hERG, sequence (Q12809 whole entry F656A): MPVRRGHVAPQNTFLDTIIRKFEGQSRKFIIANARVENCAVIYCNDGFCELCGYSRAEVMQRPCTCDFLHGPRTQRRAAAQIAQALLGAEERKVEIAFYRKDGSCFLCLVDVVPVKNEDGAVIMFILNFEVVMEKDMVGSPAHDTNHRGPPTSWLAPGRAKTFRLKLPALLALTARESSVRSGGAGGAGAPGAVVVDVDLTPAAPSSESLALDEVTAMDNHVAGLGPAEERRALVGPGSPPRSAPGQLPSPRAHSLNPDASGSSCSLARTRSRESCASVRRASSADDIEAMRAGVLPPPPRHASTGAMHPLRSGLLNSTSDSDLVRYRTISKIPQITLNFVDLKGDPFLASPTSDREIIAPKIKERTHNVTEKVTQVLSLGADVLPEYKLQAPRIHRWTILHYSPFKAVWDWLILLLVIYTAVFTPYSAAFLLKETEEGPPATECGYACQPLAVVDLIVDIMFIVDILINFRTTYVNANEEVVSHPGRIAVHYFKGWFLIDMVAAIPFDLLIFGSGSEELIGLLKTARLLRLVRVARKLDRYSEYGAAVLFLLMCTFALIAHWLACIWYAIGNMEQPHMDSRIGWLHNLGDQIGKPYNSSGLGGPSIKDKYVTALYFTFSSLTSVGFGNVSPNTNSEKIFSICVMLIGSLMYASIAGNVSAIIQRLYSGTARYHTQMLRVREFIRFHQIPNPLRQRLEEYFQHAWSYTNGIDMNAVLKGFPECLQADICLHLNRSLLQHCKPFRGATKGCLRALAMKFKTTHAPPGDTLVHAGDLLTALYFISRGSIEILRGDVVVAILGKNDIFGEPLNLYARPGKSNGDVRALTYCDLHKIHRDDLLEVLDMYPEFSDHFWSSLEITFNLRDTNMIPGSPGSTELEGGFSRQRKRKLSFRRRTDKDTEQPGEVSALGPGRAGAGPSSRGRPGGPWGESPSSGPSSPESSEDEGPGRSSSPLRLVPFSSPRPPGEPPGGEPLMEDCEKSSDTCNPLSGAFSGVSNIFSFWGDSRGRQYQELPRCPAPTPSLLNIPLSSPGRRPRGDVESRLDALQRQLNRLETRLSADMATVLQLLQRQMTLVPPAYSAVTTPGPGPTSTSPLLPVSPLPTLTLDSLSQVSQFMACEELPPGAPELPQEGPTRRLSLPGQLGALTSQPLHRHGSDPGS
# [4] = read-out: WT IC50, Oocyte, room temperature
structure (smiles),measurement,setting,value
CCCCCCC[N+](CC)(CC)CCCCc1ccc(Cl)cc1 [Clofilium],IC50,hERG (WT) [1]; [4],30 nM
O=C1Cc2cc(CCN3CCN(c4nsc5ccccc45)CC3)c(Cl)cc2N1 [Ziprasidone],IC50,"hERG (WT) [3]; HEK293, 37 °C, read-out: WT IC50",120 nM
same,IC50,hERG (WT) [1],2800 nM
same,"IC50 fold increase (mutant IC50/WT IC50), Y652A",Y652A hERG,140 fold
same,"IC50 fold increase (mutant IC50/WT IC50), F656A",F656A hERG,357 fold
CCCCc1oc2ccccc2c1C(=O)c1cc(I)c(OCCNCC)c(I)c1 [desethyl-amiodarone],IC50,"hERG (WT) [3]; metabolite DEA, read-out: IhERG IC50",~160 nM

# From publication PMC4959829 (Biochemical Pharmacology, 2016)
